Measurements from patent US20230201487A1, “NEBULIZER DEVICE OPTIMIZATION FOR IMPROVED AEROSOL PARAMETERS AND USES THEREOF” (Avalyn Pharma Inc., priority 2020, published 2023).
Marks after values point to notes of the source that are not given here.

Columns and labels:
Format in all cases: physicochemical
[1] = Respirable aerosol droplet output rate by laser diffraction and gravimetric total output rate, simulated breathing, eFlow nebulizer; conditions: for Output rate Benefit, Combined Effect (Vented + XL): vented XL vs. non-vented L
Experimental: As an initial analysis, emitted aerosol saline and pirfenidone aqueous solution formulation droplet size as a function of time was measured using a Helos, Sympatec laser under partially simulated breathing conditions (adult breathing pattern, 500 mL tidal volume, 15 breaths/min with a 1:1 inhalation: exhalation ratio) using a Compas 2 breath simulator. Briefly, twelve investigational PART eFlow® nebulizers (with 6 L and 6 XL aerosol mixing chambers) with a single set of 6 (six) aerosol head class 35 (6 total heads; Table 1) were used in both L (about 49 cc volume aerosol mixing chamber) and XL (about 98 cc volume aerosol mixing chamber) configurations and tested in triplicate with the 8 mL of pirfenidone aqueous solution medicine cup reservoir under atmospheric conditions (vented) and permitting generation of negative pressure (non-vented). The following exemplary replicates were performed: A. Head 1/L/vented, B. Head 1/L/non-vented, C. Head 1/XL/vented, D. Head 1/XL/non-vented, and repeated in the following order: A, B, C, D, A, B, C, D, A, B, C, D. Results are shown in Table 2.
In this analysis, respirable aerosol droplet output rate of saline and pirfenidone formulation was determined by multiplying the respirable fraction (RF; percent emitted aerosol droplets with a diameter less than 5 microns at 20 second increments) by total output rate (TOR; calculated by dividing the total nebulizer weight loss by nebulization duration). Saline was made as 150 mM sodium chloride in water, while the pirfenidone formulation was 12.5 mg/mL pirfenidone in 5 mM citrate buffer, pH 6.0, 150 mM sodium chloride and 0.75 mM sodium saccharin in water. Duration to nebulize 8 mL saline was 8.6 min, 12.6 min, 8.5 min and 12.0 min for vented “L”, non-vented “L”, vented “XL” and non-vented “XL”, respectively. Duration to nebulize 8 mL AP01 was 8.4 min, 12.3 min, 8.3 min and 12.4 min for vented “L”, non-vented “L”, vented “XL” and non-vented “XL”, respectively.

[2] = Respirable delivered dose during breath simulation, inspiratory filters, HPLC; set-up: Slope of respirable delivered dose: unit not given here; conditions: for Total respirable delivered pirfenidone dose over 8 minutes: 8 mL of 12.5 mg/mL
Experimental: For a more clinically relevant comparison, in a second analysis, of aerosol delivery parameters for pirfenidone in solution, the respirable delivered dose (RDD; amount of deposited pirfenidone from aerosol droplets less than 5 microns in diameter) was measured during breath simulation (adult breathing pattern, 500 mL tidal volume, 15 breaths/min with a 1:1 inhalation: exhalation ratio) using a Compas 2 breath simulator was used as follows. Briefly, twelve investigational eFlow® (with 6 L and 6 XL aerosol mixing chambers) with a single set of 6 (six) aerosol head class 35 (6 total heads; Table 1) were used in both (about 49 cc volume) and XL (about 98 cc volume) aerosol mixing chamber configurations and tested in duplicate with the 8 mL medicine cup reservoir under atmospheric conditions (vented) and permitting generation of negative pressure (non-vented) during nebulization. An 8 mL dose (aqueous pirfenidone solution at concentration of 12.5 mg/ml) was loaded into the medicine cup reservoir and nebulization initiated. After 2, 4, 6 and 8 min of nebulization, inspiratory filters were collected and extracted for pirfenidone quantitation using HPLC analysis. A final filter was used after 8 min to collect remaining dose. The following exemplary replicates were performed: A. Head 1/L/vented, B. Head 1/L/non-vented, C. Head 1/XL/vented, D. Head 1/XL/non-vented, and repeated in the following order: A, B, C, D, A, B, C, D. Results are shown in Table 4.

[3] = Aerosol head/assembled device correlation study (TOR, VMD, GSD, nebulization time), 53 aerosol heads; conditions: Vented, XL Device
Experimental: To establish an aerosol generator (head) specification meeting the desired delivery of 8 mL aqueous pirfenidone solution in the assembled nebulizer device 1 not exceeding 16 minute delivery time (or an 0.5 mL/min output rate), a correlation study between the head-only performance with 0.9% NaCl (saline) and the assembled nebulizer device 1 (vented, XL configuration) performance with aqueous pirfenidone was conducted. Using heads only, the aerosol characteristics total output rate (TOR), volumetric median diameter (VMD) and geometric standard deviation (GSD) were performed under constant negative pressure (−250 mbar; relative to atmospheric pressure) and under ambient, atmospheric pressure conditions (0 mbar; relative to atmospheric pressure).
These heads were either tested alone using a special apparatus (saline −250 mbar or 0 mbar) or in assembled devices (saline and aqueous pirfenidone; 8 mL vented medicine cup reservoir 3 and XL aerosol mixing chamber 8 configuration).

Cc1ccc(=O)n(-c2ccccc2)c1 [pirfenidone, 5-methyl-1-phenyl-2-(1H)-pyridone]
Benefit of aerosol mixing chamber volume on respirable aerosol droplet output rate ([1]; all device configurations regardless of medicine cup pressure): −2 to −5.5% | Output rate Benefit, Maintaining Atmospheric Pressure (Vented) ([1]; vented L vs. non-vented L, 0-2 min): about +19.4% | Output rate Benefit, Maintaining Atmospheric Pressure (Vented) ([1]; vented L vs. non-vented L, 6-8 min): about +17.5% | Output rate Benefit, Combined Effect (Vented + XL) ([1]; 0-2 min): about +17% | Output rate Benefit, Combined Effect (Vented + XL) ([1]; 6-8 min): ~+12.6% | Output rate Benefit, Maintaining Atmospheric Pressure (Vented) ([1]; vented XL vs. non-vented XL, 0-2 min): about +23.8% | Output rate Benefit, Maintaining Atmospheric Pressure (Vented) ([1]; vented XL vs. non-vented XL, 6-8 min): about +17% | Theoretical total delivery rate ([2]; assuming a fifty percent respirable delivered dose, 12.5 mg/mL): 6.25 mg per minute | Slope of respirable delivered dose ([2]; non-vented (NV), L aerosol mixing chamber): −0.16 | Respirable Delivered Dose ([2]; non-vented (NV), L aerosol mixing chamber, 0-2 min): 5.75 mg/time increment | Respirable Delivered Dose ([2]; non-vented (NV), L aerosol mixing chamber, 2-4 min): 5.71 mg/time increment | Respirable Delivered Dose ([2]; non-vented (NV), L aerosol mixing chamber, 4-6 min): 5.49 mg/time increment | Respirable Delivered Dose ([2]; non-vented (NV), L aerosol mixing chamber, 6-8 min): 5.27 mg/time increment | Slope of respirable delivered dose ([2]; non-vented (NV), XL aerosol mixing chamber): −0.20 | Respirable Delivered Dose ([2]; non-vented (NV), XL aerosol mixing chamber, 0-2 min): 6.50 mg/time increment | Respirable Delivered Dose ([2]; non-vented (NV), XL aerosol mixing chamber, 2-4 min): 6.44 mg/time increment | Respirable Delivered Dose ([2]; non-vented (NV), XL aerosol mixing chamber, 4-6 min): 6.37 mg/time increment | Respirable Delivered Dose ([2]; non-vented (NV), XL aerosol mixing chamber, 6-8 min): 5.87 mg/time increment | RDD Benefit, Increased Aerosol mixing chamber (XL) ([2]; non-vented L vs. non-vented XL, 0-2 min): 13.15^g % | RDD Benefit, Increased Aerosol mixing chamber (XL) ([2]; non-vented L vs. non-vented XL, 6-8 min): 11.28^g % | Respirable delivered dose per minute ([2]; non-vented L, 12.5 mg/mL): 2.78 mg/min | Total respirable delivered pirfenidone dose over 8 minutes ([2]; non-vented L): 22.22 mg | Slope of respirable delivered dose ([2]; vented (V), L aerosol mixing chamber): 0.12 | Respirable Delivered Dose ([2]; vented (V), L aerosol mixing chamber, 0-2 min, 8 mL of 12.5 mg/ml): 5.97 mg/time increment | Respirable Delivered Dose ([2]; vented (V), L aerosol mixing chamber, 2-4 min): 6.16 mg/time increment | Respirable Delivered Dose ([2]; vented (V), L aerosol mixing chamber, 4-6 min): 6.33 mg/time increment | Respirable Delivered Dose ([2]; vented (V), L aerosol mixing chamber, 6-8 min): 6.32 mg/time increment | Slope of respirable delivered dose ([2]; vented (V), XL aerosol mixing chamber): 0.13 | Respirable Delivered Dose ([2]; vented (V), XL aerosol mixing chamber, 0-2 min): 6.65 mg/time increment | Respirable Delivered Dose ([2]; vented (V), XL aerosol mixing chamber, 2-4 min): 7.07 mg/time increment | Respirable Delivered Dose ([2]; vented (V), XL aerosol mixing chamber, 4-6 min): 7.01 mg/time increment | Respirable Delivered Dose ([2]; vented (V), XL aerosol mixing chamber, 6-8 min): 7.11 mg/time increment | RDD Benefit, Increased Aerosol mixing chamber (XL) ([2]; vented L vs. vented XL, 0-2 min): 11.35^e % | RDD Benefit, Increased Aerosol mixing chamber (XL) ([2]; vented L vs. vented XL, 6-8 min): 12.49^e % | Respirable delivered dose per minute ([2]; vented XL, 12.5 mg/mL): 3.48 mg/min | Total respirable delivered pirfenidone dose over 8 minutes ([2]; vented XL): 27.84 mg | Total Output Rate (TOR), Average [3]: 0.782 g/min | Total Output Rate (TOR), Max [3]: 1.049 g/min | Total Output Rate (TOR), Min [3]: 0.382 g/min
